Reference: ChEMBL document CHEMBL3991601, “The target landscape of clinical kinase drugs” (Science, 2017)
Calls of active or inactive are those of the source. Rule as the data show it, for most assays here: actives have a measured Kd and inactives only a lower limit.

Key:
[1] = target: Protein kinase C beta type (Homo sapiens, UniProt P05771)
Midasin = Midasin (Homo sapiens, UniProt Q9NU22)
[2] = target: T1, Serine/threonine-protein kinase 4 (Homo sapiens, UniProt Q13043)
T1 sequence (Q13043 whole entry): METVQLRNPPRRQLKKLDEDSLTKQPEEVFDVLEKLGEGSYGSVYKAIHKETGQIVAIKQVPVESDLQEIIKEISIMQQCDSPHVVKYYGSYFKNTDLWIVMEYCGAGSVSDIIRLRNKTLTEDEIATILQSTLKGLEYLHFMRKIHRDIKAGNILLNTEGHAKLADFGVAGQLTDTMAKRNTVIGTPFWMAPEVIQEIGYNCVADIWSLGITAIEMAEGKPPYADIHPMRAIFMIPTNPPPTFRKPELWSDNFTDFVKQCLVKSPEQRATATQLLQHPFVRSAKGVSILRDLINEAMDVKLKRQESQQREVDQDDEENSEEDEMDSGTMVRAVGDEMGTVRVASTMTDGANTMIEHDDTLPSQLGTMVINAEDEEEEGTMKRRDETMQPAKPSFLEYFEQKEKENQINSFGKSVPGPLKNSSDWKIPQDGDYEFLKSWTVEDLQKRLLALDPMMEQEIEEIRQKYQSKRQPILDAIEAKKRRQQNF

[3] = target: Putative heat shock protein HSP 90-beta 2 (Homo sapiens, UniProt Q58FF8)
Chain of Putative heat shock protein HSP 90-beta 2 (Q58FF8 whole entry): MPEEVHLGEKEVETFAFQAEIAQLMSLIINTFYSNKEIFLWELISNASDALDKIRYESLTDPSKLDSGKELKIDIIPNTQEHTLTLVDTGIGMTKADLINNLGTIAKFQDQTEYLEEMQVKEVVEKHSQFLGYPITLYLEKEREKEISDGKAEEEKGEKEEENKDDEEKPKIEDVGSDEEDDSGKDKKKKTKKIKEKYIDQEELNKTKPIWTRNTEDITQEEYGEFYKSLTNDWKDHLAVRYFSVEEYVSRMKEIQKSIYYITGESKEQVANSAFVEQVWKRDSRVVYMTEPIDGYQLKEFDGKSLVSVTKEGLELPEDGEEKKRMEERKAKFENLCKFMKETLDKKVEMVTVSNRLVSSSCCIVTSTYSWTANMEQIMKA

[4] = target: Serine/threonine-protein kinase SIK2 (Homo sapiens, UniProt Q9H0K1)
Chain of Serine/threonine-protein kinase SIK2 (Q9H0K1 whole entry): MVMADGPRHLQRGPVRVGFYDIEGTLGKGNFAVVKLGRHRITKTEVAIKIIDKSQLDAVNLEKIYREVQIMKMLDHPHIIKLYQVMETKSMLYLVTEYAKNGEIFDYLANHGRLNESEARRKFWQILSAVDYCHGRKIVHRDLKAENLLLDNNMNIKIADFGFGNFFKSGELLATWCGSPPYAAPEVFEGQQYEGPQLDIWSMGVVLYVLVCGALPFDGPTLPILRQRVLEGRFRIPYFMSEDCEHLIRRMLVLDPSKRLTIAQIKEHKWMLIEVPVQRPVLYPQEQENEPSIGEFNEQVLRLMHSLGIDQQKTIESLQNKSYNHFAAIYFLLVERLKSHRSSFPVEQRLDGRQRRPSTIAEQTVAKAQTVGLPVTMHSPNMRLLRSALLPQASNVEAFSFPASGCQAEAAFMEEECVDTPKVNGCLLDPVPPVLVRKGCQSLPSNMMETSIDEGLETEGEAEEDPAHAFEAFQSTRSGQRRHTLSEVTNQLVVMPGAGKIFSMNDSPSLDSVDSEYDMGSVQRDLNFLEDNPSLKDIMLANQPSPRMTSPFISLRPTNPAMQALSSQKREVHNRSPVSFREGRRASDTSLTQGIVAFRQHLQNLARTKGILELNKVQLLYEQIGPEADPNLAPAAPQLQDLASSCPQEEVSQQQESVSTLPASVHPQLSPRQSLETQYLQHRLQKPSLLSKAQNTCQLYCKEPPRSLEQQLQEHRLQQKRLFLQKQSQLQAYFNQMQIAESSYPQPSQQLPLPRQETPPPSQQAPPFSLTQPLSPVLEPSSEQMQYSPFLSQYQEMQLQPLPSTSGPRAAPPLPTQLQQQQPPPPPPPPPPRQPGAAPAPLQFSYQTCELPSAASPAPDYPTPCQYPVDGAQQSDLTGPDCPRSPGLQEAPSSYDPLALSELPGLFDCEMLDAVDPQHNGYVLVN

[5] = target: cAMP-dependent protein kinase catalytic subunit beta (Homo sapiens, UniProt P22694)
[6] = target: Dual specificity protein kinase CLK1 (Homo sapiens, UniProt P49759)
Chain of Dual specificity protein kinase CLK1 (P49759 whole entry): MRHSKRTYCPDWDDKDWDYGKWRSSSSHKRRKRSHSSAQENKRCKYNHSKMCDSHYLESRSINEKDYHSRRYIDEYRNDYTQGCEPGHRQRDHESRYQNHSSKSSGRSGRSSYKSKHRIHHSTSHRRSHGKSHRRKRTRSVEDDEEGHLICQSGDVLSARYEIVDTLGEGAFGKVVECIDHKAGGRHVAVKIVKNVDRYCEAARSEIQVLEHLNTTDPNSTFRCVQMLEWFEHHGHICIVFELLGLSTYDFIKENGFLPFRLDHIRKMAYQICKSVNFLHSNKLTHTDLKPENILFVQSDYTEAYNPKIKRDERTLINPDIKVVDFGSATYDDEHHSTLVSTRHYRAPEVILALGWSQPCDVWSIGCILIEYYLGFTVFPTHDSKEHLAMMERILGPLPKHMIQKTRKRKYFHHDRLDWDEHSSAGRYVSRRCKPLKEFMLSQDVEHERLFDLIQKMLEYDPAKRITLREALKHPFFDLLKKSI

[7] = target: T2, Cyclin-G-associated kinase (Homo sapiens, UniProt O14976)
T2 sequence (O14976 whole entry): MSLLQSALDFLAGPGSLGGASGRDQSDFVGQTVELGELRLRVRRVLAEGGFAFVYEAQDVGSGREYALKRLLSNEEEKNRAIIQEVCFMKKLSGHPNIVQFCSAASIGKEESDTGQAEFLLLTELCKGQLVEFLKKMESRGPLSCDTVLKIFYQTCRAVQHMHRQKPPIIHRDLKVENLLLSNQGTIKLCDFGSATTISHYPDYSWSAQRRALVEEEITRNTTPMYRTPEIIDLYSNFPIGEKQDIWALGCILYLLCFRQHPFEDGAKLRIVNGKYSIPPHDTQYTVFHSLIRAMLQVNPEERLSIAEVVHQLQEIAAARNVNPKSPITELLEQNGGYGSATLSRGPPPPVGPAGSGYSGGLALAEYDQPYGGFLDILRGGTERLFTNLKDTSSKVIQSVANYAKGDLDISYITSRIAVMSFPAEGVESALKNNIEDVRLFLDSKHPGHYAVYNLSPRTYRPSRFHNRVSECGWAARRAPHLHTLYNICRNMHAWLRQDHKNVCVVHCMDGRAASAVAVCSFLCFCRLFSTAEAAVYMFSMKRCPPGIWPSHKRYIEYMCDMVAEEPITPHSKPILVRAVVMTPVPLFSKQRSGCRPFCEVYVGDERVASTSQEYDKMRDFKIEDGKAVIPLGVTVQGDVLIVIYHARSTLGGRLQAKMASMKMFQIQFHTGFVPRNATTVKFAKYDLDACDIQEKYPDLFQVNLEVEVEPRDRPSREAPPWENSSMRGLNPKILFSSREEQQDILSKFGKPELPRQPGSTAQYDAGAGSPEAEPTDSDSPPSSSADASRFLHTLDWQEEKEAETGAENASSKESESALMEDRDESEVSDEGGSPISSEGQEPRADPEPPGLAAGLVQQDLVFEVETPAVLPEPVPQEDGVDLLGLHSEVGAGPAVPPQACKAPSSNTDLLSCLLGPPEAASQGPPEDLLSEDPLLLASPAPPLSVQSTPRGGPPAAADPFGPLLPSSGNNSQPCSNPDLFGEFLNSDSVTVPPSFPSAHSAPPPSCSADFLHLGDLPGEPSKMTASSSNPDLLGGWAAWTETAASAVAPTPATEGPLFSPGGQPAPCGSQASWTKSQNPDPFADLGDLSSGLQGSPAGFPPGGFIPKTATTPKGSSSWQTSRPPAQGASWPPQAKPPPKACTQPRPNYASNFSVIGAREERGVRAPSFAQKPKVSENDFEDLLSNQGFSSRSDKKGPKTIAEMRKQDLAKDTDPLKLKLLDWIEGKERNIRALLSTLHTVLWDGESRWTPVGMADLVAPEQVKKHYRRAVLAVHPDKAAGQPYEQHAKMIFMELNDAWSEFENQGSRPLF

[8] = target: DNA topoisomerase 2-alpha (Homo sapiens, UniProt P11388)
Chain of DNA topoisomerase 2-alpha (P11388 whole entry): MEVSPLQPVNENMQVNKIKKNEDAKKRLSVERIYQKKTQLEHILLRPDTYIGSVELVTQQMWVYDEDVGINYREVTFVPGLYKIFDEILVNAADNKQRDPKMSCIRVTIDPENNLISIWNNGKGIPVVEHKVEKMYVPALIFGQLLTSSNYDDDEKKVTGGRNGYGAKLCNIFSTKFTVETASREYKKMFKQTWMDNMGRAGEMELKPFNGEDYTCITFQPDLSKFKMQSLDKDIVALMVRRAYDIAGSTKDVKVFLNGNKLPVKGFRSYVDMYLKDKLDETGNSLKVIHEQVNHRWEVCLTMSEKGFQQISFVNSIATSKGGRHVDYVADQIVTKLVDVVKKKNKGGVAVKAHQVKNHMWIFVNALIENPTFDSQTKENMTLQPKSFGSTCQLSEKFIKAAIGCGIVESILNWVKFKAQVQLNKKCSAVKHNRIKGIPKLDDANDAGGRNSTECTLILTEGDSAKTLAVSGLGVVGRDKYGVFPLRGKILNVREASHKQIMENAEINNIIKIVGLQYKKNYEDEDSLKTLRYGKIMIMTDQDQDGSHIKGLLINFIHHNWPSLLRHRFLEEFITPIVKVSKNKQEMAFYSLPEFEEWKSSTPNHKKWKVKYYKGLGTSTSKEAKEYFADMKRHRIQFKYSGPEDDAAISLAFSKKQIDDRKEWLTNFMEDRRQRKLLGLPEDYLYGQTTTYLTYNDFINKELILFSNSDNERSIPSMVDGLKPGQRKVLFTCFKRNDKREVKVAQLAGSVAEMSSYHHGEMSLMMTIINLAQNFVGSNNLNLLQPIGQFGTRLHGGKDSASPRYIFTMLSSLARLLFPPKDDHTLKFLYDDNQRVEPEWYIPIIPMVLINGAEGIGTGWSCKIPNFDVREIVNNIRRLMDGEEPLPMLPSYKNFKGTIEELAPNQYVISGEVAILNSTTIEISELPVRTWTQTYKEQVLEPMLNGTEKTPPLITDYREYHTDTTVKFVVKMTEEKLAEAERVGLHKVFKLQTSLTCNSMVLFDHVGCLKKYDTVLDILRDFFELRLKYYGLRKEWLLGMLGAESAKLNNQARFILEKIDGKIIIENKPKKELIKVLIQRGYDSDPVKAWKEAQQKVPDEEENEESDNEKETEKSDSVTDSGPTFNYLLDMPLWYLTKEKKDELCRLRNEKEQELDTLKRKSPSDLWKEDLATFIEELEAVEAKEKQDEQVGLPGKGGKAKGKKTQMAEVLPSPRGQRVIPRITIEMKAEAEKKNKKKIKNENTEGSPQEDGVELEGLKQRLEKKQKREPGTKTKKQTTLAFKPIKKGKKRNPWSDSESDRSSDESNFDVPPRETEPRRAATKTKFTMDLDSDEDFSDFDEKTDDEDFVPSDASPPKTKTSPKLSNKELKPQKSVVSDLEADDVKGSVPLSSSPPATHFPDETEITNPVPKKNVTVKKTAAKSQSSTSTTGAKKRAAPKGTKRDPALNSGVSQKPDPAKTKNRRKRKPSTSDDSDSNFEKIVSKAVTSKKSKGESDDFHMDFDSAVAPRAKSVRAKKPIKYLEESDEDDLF

[9] = target: Mitogen-activated protein kinase 8 (Homo sapiens, UniProt P45983)
Chain of Mitogen-activated protein kinase 8 (P45983 whole entry): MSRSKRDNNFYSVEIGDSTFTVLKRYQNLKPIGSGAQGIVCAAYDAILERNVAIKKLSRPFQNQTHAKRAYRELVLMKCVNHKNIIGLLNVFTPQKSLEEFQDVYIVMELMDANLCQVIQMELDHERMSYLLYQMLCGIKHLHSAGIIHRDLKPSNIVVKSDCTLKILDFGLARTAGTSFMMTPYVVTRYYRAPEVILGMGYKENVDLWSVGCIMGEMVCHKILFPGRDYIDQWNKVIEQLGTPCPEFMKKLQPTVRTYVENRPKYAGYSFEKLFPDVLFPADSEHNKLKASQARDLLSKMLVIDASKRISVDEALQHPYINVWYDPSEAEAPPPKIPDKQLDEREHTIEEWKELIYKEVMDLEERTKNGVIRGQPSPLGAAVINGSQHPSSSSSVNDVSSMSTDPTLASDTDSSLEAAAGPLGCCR

[10] = target: T3, ATP-dependent 6-phosphofructokinase, platelet type (Homo sapiens, UniProt Q01813)
T3 sequence (Q01813 whole entry): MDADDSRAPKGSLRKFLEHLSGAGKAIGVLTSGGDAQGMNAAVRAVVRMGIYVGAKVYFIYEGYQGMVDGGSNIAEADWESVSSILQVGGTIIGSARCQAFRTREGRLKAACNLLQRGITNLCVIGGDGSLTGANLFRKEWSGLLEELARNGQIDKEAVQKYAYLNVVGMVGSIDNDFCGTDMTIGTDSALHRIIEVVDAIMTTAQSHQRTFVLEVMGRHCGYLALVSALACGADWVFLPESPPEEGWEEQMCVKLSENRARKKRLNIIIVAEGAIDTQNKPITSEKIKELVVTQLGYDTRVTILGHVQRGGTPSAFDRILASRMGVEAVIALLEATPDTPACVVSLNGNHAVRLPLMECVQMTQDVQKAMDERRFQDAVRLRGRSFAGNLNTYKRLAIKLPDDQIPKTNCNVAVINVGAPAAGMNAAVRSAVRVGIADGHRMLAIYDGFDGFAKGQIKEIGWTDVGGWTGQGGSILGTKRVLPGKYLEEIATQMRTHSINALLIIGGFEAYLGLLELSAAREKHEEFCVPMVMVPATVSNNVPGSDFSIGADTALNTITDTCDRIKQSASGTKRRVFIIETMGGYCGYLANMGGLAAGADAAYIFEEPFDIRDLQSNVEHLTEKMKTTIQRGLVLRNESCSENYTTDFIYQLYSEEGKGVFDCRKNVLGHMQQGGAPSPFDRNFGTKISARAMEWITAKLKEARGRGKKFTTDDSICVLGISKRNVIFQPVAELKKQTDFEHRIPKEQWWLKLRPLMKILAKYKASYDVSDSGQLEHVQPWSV
Also: in the data inactive means no Kd found up to 30 µM.

Chain of Protein kinase C beta type (P05771 whole entry): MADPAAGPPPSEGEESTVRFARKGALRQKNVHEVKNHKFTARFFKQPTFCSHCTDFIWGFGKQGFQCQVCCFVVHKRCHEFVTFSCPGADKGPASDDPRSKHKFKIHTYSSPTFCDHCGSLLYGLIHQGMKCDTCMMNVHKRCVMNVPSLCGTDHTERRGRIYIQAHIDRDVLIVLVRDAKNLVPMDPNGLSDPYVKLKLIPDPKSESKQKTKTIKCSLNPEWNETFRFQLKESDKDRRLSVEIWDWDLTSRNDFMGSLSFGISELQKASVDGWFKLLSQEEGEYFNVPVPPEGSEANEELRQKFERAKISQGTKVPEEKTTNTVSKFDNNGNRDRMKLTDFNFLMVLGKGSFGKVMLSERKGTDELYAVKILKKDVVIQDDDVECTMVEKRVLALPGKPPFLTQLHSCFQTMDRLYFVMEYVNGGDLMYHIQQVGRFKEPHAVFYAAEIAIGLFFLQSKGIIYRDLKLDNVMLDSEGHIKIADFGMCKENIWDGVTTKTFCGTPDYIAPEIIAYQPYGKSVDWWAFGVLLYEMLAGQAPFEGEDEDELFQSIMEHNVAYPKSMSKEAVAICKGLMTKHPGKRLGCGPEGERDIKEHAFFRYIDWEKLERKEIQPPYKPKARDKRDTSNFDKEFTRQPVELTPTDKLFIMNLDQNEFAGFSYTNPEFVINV

| SMILES | Kd [1] | Kd (Midasin) | Kd [2] | Kd [3] | Kd [4] | Kd [5] | Kd [6] | Kd [7] | Kd [8] | Kd [9] | Kd [10] |
| --- | --- | --- | --- | --- | --- | --- | --- | --- | --- | --- | --- |
| O=c1sn(-c2cccc3ccccc23)c(=O)n1Cc1ccccc1 [TIDEGLUSIB] | > 30 µM (inactive) | > 30 µM (inactive) | > 30 µM (inactive) | > 30 µM (inactive) | > 30 µM (inactive) | > 30 µM (inactive) | > 30 µM (inactive) | > 30 µM (inactive) | > 30 µM (inactive) | > 30 µM (inactive) | > 30 µM (inactive) |
| Cn1ncc(Cl)c1-c1cc(C(=O)N[C@H](CN)Cc2cccc(F)c2)sc1Cl [AFURESERTIB] | 4.88 µM (active) | > 30 µM (inactive) | > 30 µM (inactive) | > 30 µM (inactive) | > 30 µM (inactive) | 0.211 µM (active) | – | > 30 µM (inactive) | > 30 µM (inactive) | > 30 µM (inactive) | > 30 µM (inactive) |
| CNC(=O)c1ccc(-c2cnc3ncc(Cc4ccc5ncccc5c4)n3n2)cc1F [CAPMATINIB] | > 30 µM (inactive) | > 30 µM (inactive) | > 30 µM (inactive) | > 30 µM (inactive) | > 30 µM (inactive) | > 30 µM (inactive) | > 30 µM (inactive) | > 30 µM (inactive) | > 30 µM (inactive) | > 30 µM (inactive) | – |
| C=CC(=O)N1CCC(Oc2cc3c(Nc4ccc(Cl)c(Cl)c4F)ncnc3cc2OC)CC1 [POZIOTINIB] | > 30 µM (inactive) | > 30 µM (inactive) | > 30 µM (inactive) | – | > 30 µM (inactive) | > 30 µM (inactive) | > 30 µM (inactive) | > 30 µM (inactive) | > 30 µM (inactive) | > 30 µM (inactive) | > 30 µM (inactive) |
| Cn1cc(-c2ccc(F)c(C(F)(F)F)c2)nc1C1CCN(c2ncnc3[nH]ncc23)CC1 [LY-2584702] | > 30 µM (inactive) | > 30 µM (inactive) | > 30 µM (inactive) | > 30 µM (inactive) | > 30 µM (inactive) | > 30 µM (inactive) | > 30 µM (inactive) | > 30 µM (inactive) | – | > 30 µM (inactive) | > 30 µM (inactive) |
| O=C1NC(=O)/C(=C/c2ccc3nccc(-c4ccncc4)c3c2)S1 [GSK-1059615] | > 30 µM (inactive) | – | > 30 µM (inactive) | > 30 µM (inactive) | > 30 µM (inactive) | > 30 µM (inactive) | 0.025 µM (active) | 7.44 µM (active) | > 30 µM (inactive) | > 30 µM (inactive) | > 30 µM (inactive) |
| CNC(=O)c1cc(Oc2ccc(NC(=O)Nc3ccc(Cl)c(C(F)(F)F)c3)c(F)c2)ccn1 [REGORAFENIB] | > 30 µM (inactive) | > 30 µM (inactive) | > 30 µM (inactive) | – | > 30 µM (inactive) | > 30 µM (inactive) | 2.11 µM (active) | > 30 µM (inactive) | > 30 µM (inactive) | > 30 µM (inactive) | > 30 µM (inactive) |
| CN1N=C(N)c2cn([C@@H]3O[C@H](COP(=O)(O)O)[C@@H](O)[C@H]3O)c3ncnc1c23 [TRICIRIBINE PHOSPHATE] | > 30 µM (inactive) | > 30 µM (inactive) | > 30 µM (inactive) | > 30 µM (inactive) | > 30 µM (inactive) | > 30 µM (inactive) | – | > 30 µM (inactive) | > 30 µM (inactive) | > 30 µM (inactive) | > 30 µM (inactive) |
| Cc1ccc(S(=O)(=O)Nc2nc3ccccc3nc2Nc2ccc3nsnc3c2)cc1 | > 30 µM (inactive) | > 30 µM (inactive) | > 30 µM (inactive) | – | > 30 µM (inactive) | > 30 µM (inactive) | > 30 µM (inactive) | > 30 µM (inactive) | > 30 µM (inactive) | > 30 µM (inactive) | > 30 µM (inactive) |
| CCS(=O)(=O)N1CC(CC#N)(n2cc(-c3ncnc4[nH]ccc34)cn2)C1 [BARICITINIB] | 26.3 µM (active) | > 30 µM (inactive) | > 30 µM (inactive) | > 30 µM (inactive) | > 30 µM (inactive) | > 30 µM (inactive) | 0.778 µM | – | > 30 µM (inactive) | > 30 µM (inactive) | > 30 µM (inactive) |
| C1=C/COCc2cc(ccc2OCCN2CCCC2)Nc2nccc(n2)-c2cccc(c2)COC/1 [PACRITINIB] | 7.24 µM (active) | > 30 µM (inactive) | > 30 µM (inactive) | > 30 µM (inactive) | > 30 µM (inactive) | > 30 µM (inactive) | 0.138 µM | 0.674 µM (active) | – | 1.96 µM (active) | > 30 µM (inactive) |
| N[C@@H]1CCCN(c2c(/C=C3\SC(=O)NC3=O)cccc2-c2ccccc2)C1 | > 30 µM (inactive) | > 30 µM (inactive) | > 30 µM (inactive) | > 30 µM (inactive) | > 30 µM (inactive) | > 30 µM (inactive) | – | > 30 µM (inactive) | > 30 µM (inactive) | > 30 µM (inactive) | > 30 µM (inactive) |
| C[C@@H]1CN(Cc2ccc(F)cc2)[C@@H](C)CN1C(=O)c1cc2c(C(=O)C(=O)N(C)C)cn(C)c2cc1Cl [TALMAPIMOD] | > 30 µM (inactive) | > 30 µM (inactive) | > 30 µM (inactive) | > 30 µM (inactive) | > 30 µM (inactive) | > 30 µM (inactive) | > 30 µM (inactive) | > 30 µM (inactive) | – | > 30 µM (inactive) | > 30 µM (inactive) |
